Assay results from US20110124724A1, “USE OF DRONEDARONE OR A PHARMACEUTICALLY ACCEPTABLE SALT THEREOF, FOR THE PREPARATION OF A MEDICAMENT FOR REGULATING THE POTASIUM LEVEL IN THE BLOOD” (SANOFI-AVENTIS, priority 2008, published 2011).
Counter-ions that a name gives are not always drawn.

Test: Prospective, multinational, multicentre, double-blind, placebo-controlled clinical study in patients with a history of atrial fibrillation or atrial flutter
Format: in vivo
Experimental: The patients had to have a history of atrial fibrillation or flutter and/or could be in normal sinus rhythm or in atrial fibrillation or flutter at inclusion.
The patient recruitment was carried out by taking into account the following inclusion criteria:
Inclusion Criteria: • 1) One of the following risk factors had to be present: • age equal to or above 70, or even above 75, possibly combined with at least one of the risk factors below: • hypertension (taking antihypertensives of at least two different classes), • diabetes, • history of cerebral stroke (transient ischemic event or completed cerebral stroke) or of systemic embolism, • left atrial diameter greater than or equal to 50 mm measured by echocardiography, • left ventricular ejection fraction less than 40%, measured by two-dimensional echography; • 2) availability of an electrocardiogram carried out during the past 6 months in order to document the presence or the history of atrial fibrillation or flutter; • 3) availability of an electrocardiogram carried out during the past 6 months in order to document the presence or absence of normal sinus rhythm.
Treatment was initiated using tablets containing either the placebo or an amount of dronedarone hydrochloride corresponding to 400 mg of dronedarone at a rate of one tablet in the morning during or shortly after breakfast and one tablet in the evening during or shortly after dinner.
The anticipated duration of the treatment was variable according to the time at which each patient was included in the study, and could range from a minimum of 12 months for the last patient included up to a maximum corresponding to the entire duration of the study (12 months+duration of inclusion), i.e. approximately 30 months for the first patients included.
The potassium concentration-modulating effect is clearly documented in the study by virtue of the results of analyses of regular blood samples taken throughout the duration of the study in the context of the monitoring of vital parameters.
The variations in potassium (in mmol/l) between the first and the last administration of the medicament of the study are included in FIG. 1, in which B signifies basal level, D signifies day and M signifies month.
The number of patients with hypokalaemia was compared using Fischer's exact test. Hypokalaemia is defined as a concentration in potassium ion [K+] below 3 mmol/L.

[1] = among 2255 treated patients with a potassium measurement, from randomization until last administration

Structure (SMILES)	number of patients with hypokalaemia ([K+] below 3 mmol/L) [1]	proportion of patients with hypokalaemia ([K+] below 3 mmol/L) [1]	change in blood potassium level (analysis of covariance, taking into account the starting value) (compared to placebo, after the 24th month, 400 mg dronedarone twice daily, p<0.0001)	reduction in the risk of sudden death (hypertensive patients)	reduction in the risk of sudden death compared with the placebo (patients not taking diuretics)	reduction in the risk of sudden death compared with the placebo (patients on diuretics)	reduction in the risk of sudden death (patients who were not hypertensive)
CCCCc1oc2ccc(NS(C)(=O)=O)cc2c1C(=O)c1ccc(OCCCN(CCCC)CCCC)cc1 [dronedarone hydrochloride]	14 patients	0.6%					
CCCCc1oc2ccc(NS(C)(=O)=O)cc2c1C(=O)c1ccc(OCCCN(CCCC)CCCC)cc1 [dronedarone, 2-n-Butyl-3-[4-(3-di-n-butylaminopropoxy)benzoyl]-5-methylsulphonamidobenzofuran]			significant difference in favour of dronedarone	62%	34%	70.4%	45.5%
